Patent US8791064B2, “Beta-lactoglobulin-polysaccharide nanoparticles for hydrophobic bioactive compounds” (Technion Research and Development Foundation Ltd., priority 2008, dated 2014)
Several values for one entry are separate records, joined by “and”; a condition that tells them apart may be missing. Identical values can stand only once. Like-named read-outs stand apart in the source and are kept apart here. Blank lines part the entries; values can stand above or below the molecule they belong to.

Legend:
[1] = Partition of vitamin D2 between nanocomplex pellet and serum (ultracentrifugation, RP-HPLC); format: physicochemical
Experimental: To evaluate the encapsulation of the vitamin within the nanoparticles, the partition of the vitamin between the particles and the serum was studied. For this purpose, an ultra centrifuge (15,000×g) was used to separate the nanocomplexes (pellet) from the serum (supernatant), and the concentration of vitamin D2 in the pellet was compared to that in the serum. Vitamin content of particles and serum was analyzed by solvent extraction followed by reversed phase HPLC, according to the method described in Semo et al., 2007, Food Hydrocolloids 21:936. […] Therefore, vitamin concentration in the nanoparticle pellet was 55 times higher than vitamin concentration in the serum, and 5.7 times higher than the initial concentration of the vitamin in the dispersion (13.5 μg mL^−1).

[2] = Vitamin D2 accelerated shelf-life stress test at 30° C.; format: physicochemical; conditions: pH 4.25, 30° C., 125 hours
Experimental: FIG. 7: Effect of encapsulation on stability of vitamin D during an accelerated shelf-life stress test at pH 4.25: samples were stored at 30° C. in closed vials containing 10 mL of solution and 10 mL of air, for a period of 125 hours: (▪) VD2-loaded β-lactoglobulin) (▴) complexes of VD2-β-lactoglobulin-pectin (pH 4.25). (♦) control of unprotected VD2 in water.

[3] = Electrophoretic mobility / zeta potential; format: physicochemical
Text: Four criteria were used in order to evaluate the β-lactoglobulin-polysaccharide nanocomplexes and find the conditions (pH and ratio) which yield transparent suspensions containing small and stable nanoparticles: Sedimentation—Qualitative observation of the solutions in glass vials, following overnight equilibration at room temperature; Turbidity—Measured by an Ultrospec 3000 spectrophotometer (GE Healthcare, Life Sciences, UK), at 600 nm using 1 cm path cuvettes: Samples were vortexed prior to analysis; Electrophoretic mobility (EM or μe)—Measured using a zeta potential/particle size analyzer NICOMP™ 380 (Particle Sizing Systems Ltd. Santa Barbara, Calif., Agilent Technologies Inc., USA). The EM was measured under a 3 V/cm e-field at 25° C.; and Particle size—measured by Dynamic Light Scattering using the NICOMP™380 at 23° C. using 0.933 cp for the viscosity of the medium.
The stability of these colloidal systems was studied by measuring the electrophoretic mobility (EM) of the colloidal particles (FIGS. 12 and 13). Because the ionic strength of the studied systems was very low, and the particles are both very small and “soft” (being aggregates of oppositely charged polymers), the precise calculation of zeta potential from EM is not possible, due to the complexity of the system, and the limitations of currently available theoretical models. […]

[4] = cited from earlier work; for pI of β-lactoglobulin: literature value (Jameson et al., 2002)

vitamin concentration in the nanoparticle pellet relative to the initial concentration in the dispersion ([1]; initial concentration 13.5 μg mL^−1): 5.7 times higher
Vitamin D2 concentration in the supernatant (serum) ([1]; β-lactoglobulin-pectin nanocomplex dispersion centrifuged at 15,000×g): 1.4 µg/mL
vitamin concentration in the nanoparticle pellet relative to the serum ([1]; β-lactoglobulin-pectin nanocomplexes): 55 times higher
Vitamin D2 concentration in the pellet ([1]; β-lactoglobulin-pectin nanocomplexes separated at 15,000×g, initial concentration 13.5 μg mL^−1): 77.26 µg/mL
degradation of the vitamin (ranking) ([2]; unprotected control, vitamin D dispersion in water): fastest degradation rate
degradation of the vitamin (ranking) ([2]; vitamin D2 in β-lactoglobulin-pectin nanocomplexes, closed vials with 10 mL air): slowest degradation
Molecule: C=C1CC[C@H](O)C/C1=C/C=C1\CCC[C@]2(C)[C@@H]([C@H](C)/C=C/[C@H](C)C(C)C)CC[C@@H]12 [Vitamin D2, ergocalciferol]

Molecule: β-lactoglobulin: bovine β-lactoglobulin isolate (Davisco), major whey protein, 18.4 kDa
isoelectric point from electrophoretic mobility versus pH ([3]; 0.05% β-lactoglobulin alone, 25° C., low ionic strength (FIG. 13)): 5.2
zeta potential ([3]; pure β-lactoglobulin 0.05% wt, no pectin, pH 3.5 to 4.5): +6 mV
pI of β-lactoglobulin [4]: 5.18 and 5.1
pI of β-lactoglobulin ([4]; listed as lactoglobulin): 5.18

Molecule: CC/C=C\C/C=C\C/C=C\C/C=C\C/C=C\C/C=C\CCC(=O)O [DHA, docosahexaenoic acid]
pKa of DHA ([4]; Namani et al., 2007): ≈ 8.5
